Read-outs that look alike come from different tables or passages of the source.
Target: T1, BCL6 (Homo sapiens, UniProt P41182)
T1 construct: endogenous in cells; host or cells: T47D breast cancer epithelial cells
Test: Immunofluorescence protocol for high content imaging of BCL6 (degradation) in T47D cells, 3 days compound treatment
Format: cell-based
Conditions: for DC50: read-out: Mean DC50 (nM)* category; for Dmax: read-out: Mean Dmax (%)** category
Method in brief: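 Cells are seeded to reach ~70-90% confluence at endpoint, then dosed next day with compound at a final top concentration of 0.1 or 1 μM (11 points, 3-fold). After 3 days, BCL6 is detected by immunofluorescence and quantified by high-content imaging.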

[1] = T47D cells, 3 days compound treatment

Compound | DC50 [1] [nM] | Dmax [1] [%] | Dmax (T47D) [%] | DC50 [nM]
CNC(=O)COc1cc2cc(Nc3cc(N4CCC(CN5CCC6(CC5)CN(c5ccc7c(c5)CN(C5CCC(=O)NC5=O)C7=O)C6(C)C)CC4)ncc3Cl)ccc2n(C(C)C)c1=O (stereo not drawn) [Compound 233, 2-{[6-({5-chloro-2-[4-({2-[2-(2,6-dioxopiperidin-3-yl)-1-oxo-2,3-dihydro-1H-isoindol-5-yl]-1,1-dimethyl-2,7-diazaspiro[3.5]nonan-7-yl}methyl)piperidin-1-yl]pyridin-4-yl}amino)-2-oxo-1-(propan-2-yl)-1,2-dihydroquinolin-3-yl]oxy}-N-methylacetamide] | – | – | 50 to 70 | < 10
CC(C)n1c(=O)c(OCC(=O)N(C)O)cc2cc(Nc3nc(N4CCC(O[C@H]5C[C@H](N6CCC(c7ccc8c(c7F)CN(C7CCC(=O)NC7=O)C8=O)CC6)C5)CC4)ncc3Cl)ccc21 (stereo partly drawn) [Compound 265, 2-({6-[(5-chloro-2-{4-[(1r,3r)-3-{4-[2-(2,6-dioxopiperidin-3-yl)-4-fluoro-1-oxo-2,3-dihydro-1H-isoindol-5-yl]piperidin-1-yl}cyclobutoxy]piperidin-1-yl}pyrimidin-4-yl)amino]-2-oxo-1-(propan-2-yl)-1,2-dihydroquinolin-3-yl}oxy)-N-hydroxy-N-methylacetamide] | – | – | ≥ 70 | < 10
CNC(=O)COc1cc2cc(Nc3nc(N4CCC(O[C@H]5C[C@H](N6CCC(c7cc8c(cc7Cl)C(=O)N(C7CCC(=O)NC7=O)C8)CC6)C5)CC4)ncc3Cl)ccc2n(C(C)C)c1=O (stereo partly drawn) [Compound 329, 2-({6-[(5-chloro-2-{4-[(1r,3r)-3-{4-[6-chloro-2-(2,6-dioxopiperidin-3-yl)-1-oxo-2,3-dihydro-1H-isoindol-5-yl]piperidin-1-yl}cyclobutoxy]piperidin-1-yl}pyrimidin-4-yl)amino]-2-oxo-1-(propan-2-yl)-1,2-dihydroquinolin-3-yl}oxy)-N-methylacetamide] | – | – | 50 to 70 | < 10
CNC(=O)COc1cc2cc(Nc3nc(N4CCC(O[C@H]5C[C@H](N6CCN(c7ccc8c(c7Cl)CN(C7CCC(=O)NC7=O)C8=O)[C@@H](C)C6)C5)CC4)ncc3Cl)ccc2n(C(C)C)c1=O (stereo partly drawn) [Compound 206, 2-({6-[(5-chloro-2-{4-[(1r,3r)-3-[(3S)-4-[4-chloro-2-(2,6-dioxopiperidin-3-yl)-1-oxo-2,3-dihydro-1H-isoindol-5-yl]-3-methylpiperazin-1-yl]cyclobutoxy]piperidin-1-yl}pyrimidin-4-yl)amino]-2-oxo-1-(propan-2-yl)-1,2-dihydroquinolin-3-yl}oxy)-N-methylacetamide] | < 10 | ≥ 70 | – | –
CNC(=O)COc1cc2cc(Nc3nc(N4CCC(O[C@H]5C[C@H](N6CCN(c7ccc8c(n7)CN(C7CCC(=O)NC7=O)C8=O)CC6)C5)CC4)ncc3Cl)ccc2n(C(C)C)c1=O (stereo partly drawn) [Compound 189, 2-((6-((5-chloro-2-(4-((1r,3r)-3-(4-(6-(2,6-dioxopiperidin-3-yl)-5-oxo-6,7-dihydro-5H-pyrrolo[3,4-b]pyridin-2-yl)piperazin-1-yl)cyclobutoxy)piperidin-1-yl)pyrimidin-4-yl)amino)-1-isopropyl-2-oxo-1,2-dihydroquinolin-3-yl)oxy)-N-methylacetamide] | < 10 | 50 to 70 | – | –
CNC(=O)COc1cc2cc(Nc3nc(N4CCC(O[C@H]5C[C@H](N6CCN(c7ccc8c(c7F)CN([C@H]7CCC(=O)NC7=O)C8=O)[C@H](C)C6)C5)CC4)ncc3Cl)ccc2n(C(C)C)c1=O [Compound 394, 2-({6-[(5-chloro-2-{4-[(1r,3r)-3-[(3R)-4-{2-[(3S)-2,6-dioxopiperidin-3-yl]-4-fluoro-1-oxo-2,3-dihydro-1H-isoindol-5-yl}-3-methylpiperazin-1-yl]cyclobutoxy]piperidin-1-yl}pyrimidin-4-yl)amino]-2-oxo-1-(propan-2-yl)-1,2-dihydroquinolin-3-yl}oxy)-N-methylacetamide] | – | – | ≥ 70 | < 10
CNC(=O)COc1cc2cc(Nc3nc(N4CCC(N5CCC56CN(C5CCN(c7ccc8c(c7)C(=O)N(C7CCC(=O)NC7=O)C8=O)C5)C6)CC4)ncc3Cl)ccc2n(C(C)C)c1=O (stereo not drawn) [Compound 221, 2-{[6-({5-chloro-2-[4-(6-{1-[2-(2,6-dioxopiperidin-3-yl)-1,3-dioxo-2,3-dihydro-1H-isoindol-5-yl]pyrrolidin-3-yl}-1,6-diazaspiro[3.3]heptan-1-yl)piperidin-1-yl]pyrimidin-4-yl}amino)-2-oxo-1-(propan-2-yl)-1,2-dihydroquinolin-3-yl]oxy}-N-methylacetamide] | – | – | 50 to 70 | < 10
CNC(=O)COc1cc2cc(Nc3nc(N4CCC(C(C)(C)N5CCC6(CCN(c7ccc8c(c7)CN(C7CCC(=O)NC7=O)C8=O)C6)C5)CC4)ncc3Cl)ccc2n(C(C)C)c1=O (stereo not drawn) [Compound 53] | < 10 | 50 to 70 | – | –
CNC(=O)COc1cc2cc(Nc3nc(N4CCC(O[C@H]5C[C@H](N6CCC(c7ccc8c(c7)C(=O)N(C7CCC(=O)NC7=O)C8=O)C(F)(F)C6)C5)CC4)ncc3Cl)ccc2n(C(C)C)c1=O (stereo partly drawn) [Compound 137, 2-({6-[(5-chloro-2-{4-[(1r,3r)-3-{4-[2-(2,6-dioxopiperidin-3-yl)-1,3-dioxo-2,3-dihydro-1H-isoindol-5-yl]-3,3-difluoropiperidin-1-yl}cyclobutoxy]piperidin-1-yl}pyrimidin-4-yl)amino]-2-oxo-1-(propan-2-yl)-1,2-dihydroquinolin-3-yl}oxy)-N-methylacetamide] | ≥ 100 | ≥ 70 | – | –
CNC(=O)COc1cc2cc(Nc3nc(N4CCC(C(C)(C)N5CCC6(CC5)CN(c5cccc7c5CN(C5CCC(=O)NC5=O)C7=O)C6)CC4)ncc3Cl)ccc2n(C(C)C)c1=O (stereo not drawn) [Compound 59, 2-{[6-({5-chloro-2-[4-(2-{2-[2-(2,6-dioxopiperidin-3-yl)-1-oxo-2,3-dihydro-1H-isoindol-4-yl]-2,7-diazaspiro[3.5]nonan-7-yl}propan-2-yl)piperidin-1-yl]pyrimidin-4-yl}amino)-2-oxo-1-(propan-2-yl)-1,2-dihydroquinolin-3-yl]oxy}-N-methylacetamide] | < 10 | 50 to 70 | – | –
CNC(=O)COc1cc2cc(Nc3nc(N4CCC(O[C@H]5C[C@H](N6CCN(c7ccc8c(c7Cl)CN([C@@H]7CCC(=O)NC7=O)C8=O)[C@H](C)C6)C5)CC4)ncc3Cl)ccc2n(C(C)C)c1=O [Compound 268, 2-({6-[(5-chloro-2-{4-[(1r,3r)-3-[(3R)-4-{4-chloro-2-[(3R)-2,6-dioxopiperidin-3-yl]-1-oxo-3H-isoindol-5-yl}-3-methylpiperazin-1-yl]cyclobutoxy]piperidin-1-yl}pyrimidin-4-yl)amino]-1-isopropyl-2-oxoquinolin-3-yl}oxy)-N-methylacetamide] | – | – | ≥ 70 | < 10

Now from value to molecule, other results behind:

DC50 [1] [nM] | Dmax [1] [%] | Compound | Dmax (T47D) [%] | DC50 [nM]
≥ 100 | – | CNC(=O)COc1cc2cc(Nc3nc(N4CCOC5(CN(CC6CCN(c7cccc8c7C(=O)N(C7CCC(=O)NC7=O)C8=O)CC6)C5)C4)ncc3Cl)ccc2n(C(C)C)c1=O (stereo not drawn) [Compound 143, 2-{[6-({5-chloro-2-[2-({1-[2-(2,6-dioxopiperidin-3-yl)-1,3-dioxo-2,3-dihydro-1H-isoindol-4-yl]piperidin-4-yl}methyl)-5-oxa-2,8-diazaspiro[3.5]nonan-8-yl]pyrimidin-4-yl}amino)-2-oxo-1-(propan-2-yl)-1,2-dihydroquinolin-3-yl]oxy}-N-methylacetamide] | – | –
< 10 | 50 to 70 | CNC(=O)COc1cc2cc(Nc3nc(N4CCC(F)(CN5CC6(CCN(c7ccc8c(c7)CN(C7CCC(=O)NC7=O)C8=O)CC6)C5)CC4)ncc3Cl)ccc2n(C(C)C)c1=O (stereo not drawn) [Compound 122, 2-{[6-({5-chloro-2-[4-({7-[2-(2,6-dioxopiperidin-3-yl)-1-oxo-2,3-dihydro-1H-isoindol-5-yl]-2,7-diazaspiro[3.5]nonan-2-yl}methyl)-4-fluoropiperidin-1-yl]pyrimidin-4-yl}amino)-2-oxo-1-(propan-2-yl)-1,2-dihydroquinolin-3-yl]oxy}-N-methylacetamide] | – | –
< 10 | 50 to 70 | CNC(=O)COc1cc2cc(Nc3nc(N4CCC(CN5CCC6(CN(c7cccc8c7C(=O)N(C7CCC(=O)NC7=O)C8=O)C6)C(F)(F)C5)CC4)ncc3Cl)ccc2n(C(C)C)c1=O (stereo not drawn) [Compound 91, 2-{[6-({5-chloro-2-[4-({2-[2-(2,6-dioxopiperidin-3-yl)-1,3-dioxo-2,3-dihydro-1H-isoindol-4-yl]-5,5-difluoro-2,7-diazaspiro[3.5]nonan-7-yl}methyl)piperidin-1-yl]pyrimidin-4-yl}amino)-2-oxo-1-(propan-2-yl)-1,2-dihydroquinolin-3-yl]oxy}-N-methylacetamide] | – | –
10 to 50 | 50 to 70 | CNC(=O)COc1cc2cc(Nc3nc(N4CCC5(CCN(CC6(F)CCN(c7cccc8c7C(=O)N(C7CCC(=O)NC7=O)C8=O)CC6)CC5)CC4)ncc3Cl)ccc2n(C(C)C)c1=O (stereo not drawn) [Compound 63, 2-{[6-({5-chloro-2-[9-({1-[2-(2,6-dioxopiperidin-3-yl)-1,3-dioxo-2,3-dihydro-1H-isoindol-4-yl]-4-fluoropiperidin-4-yl}methyl)-3,9-diazaspiro[5.5]undecan-3-yl]pyrimidin-4-yl}amino)-2-oxo-1-(propan-2-yl)-1,2-dihydroquinolin-3-yl]oxy}-N-methylacetamide] | – | –
< 10 | 50 to 70 | CNC(=O)COc1cc2cc(Nc3nc(N4CCN(CC5CCN(c6ccc(F)c7c6CN(C6CCC(=O)NC6=O)C7=O)CC5)CC4)ncc3Cl)ccc2n(C(C)C)c1=O (stereo not drawn) [Compound 120, 2-{[6-({5-chloro-2-[4-({1-[2-(2,6-dioxopiperidin-3-yl)-7-fluoro-1-oxo-2,3-dihydro-1H-isoindol-4-yl]piperidin-4-yl}methyl)piperazin-1-yl]pyrimidin-4-yl}amino)-2-oxo-1-(propan-2-yl)-1,2-dihydroquinolin-3-yl]oxy}-N-methylacetamide] | – | –
< 10 | 50 to 70 | CNC(=O)COc1cc2cc(Nc3nc(N4CCC(F)(CN5CC6(CCN(c7cccc8c7CN(C7CCC(=O)NC7=O)C8=O)CC6)C5)CC4)ncc3Cl)ccc2n(C(C)C)c1=O (stereo not drawn) [Compound 99] | – | –

From patent publication US11986532B2 (Arvinas Operations, Inc., priority 2021, dated 2024)
